Key:
[1] = test system: greenhouse spider mite (Tetranychus urticae); test: Tetranychus-Test (OP-resistant/dipped Treatment); assay type: in vivo; settings: active compound concentration of 0.01%, after 7 days
Experimental: Tetranychus-Test (OP-resistant/dipped Treatment)
(§1) Solvent: 3 parts by weight of dimethylformamide
(§2) Emulsifier: 1 part by weight of alkylaryl polyglycol ether
(§3) To produce a suitable preparation of active compound, 1 part by weight of active compound is mixed with the stated amount of solvent and the stated amount of emulsifier, and the concentrate is diluted with water to the desired concentration.
Bean plants (Phaseolus vulgaris), which are heavily infested by all stages of the greenhouse spider mite (Tetranychus urticae) are dipped into a preparation of active compound of the desired concentration.
After the desired period of time, the activity in % is determined. 100% means that all spider mites have been killed, 0% means that none of the spider mites have been killed.

[2] = test system: larvae of the green rice leaf hoppers (Nepliotettix cincticeps); test: Nephotettix-Test (rice seedlings dipped); assay type: in vivo, Nephotettix cincticeps; settings: active compound concentration of 0.1%, after 6 days
Experimental: Solvent: 7 parts by weight dimethylformamide
as §2, §3
Rice seedlings (Oryza sativa) are treated by being dipped into the preparation of active compound of the desired concentration and populated with larvae of the green rice leaf hoppers (Nepliotettix cincticeps) while the seedlings are still moist.
After the desired period of time, the kill in % is determined. 100% means that all leaf hoppers have been killed, 0% means that none of the leaf hoppers have been killed.

[3] = test system: caterpillars of the owlet moth (Spodoptera frugiperda); test: Spodoptera Frugiperda-Test (cabbage leaves dipped); assay type: in vivo; settings: active compound concentration of 0.1%, after 7 days
Experimental: Spodoptera Frugiperda-Test
(§4) Solvent: 7 parts by weight of dimethylformamide
as §2, §3
Cabbage leaves (Brassica oleracea) are treated by being dipped into the preparation of active compound of the desired concentration and populated with caterpillars of the owlet moth (Spodoptera frugiperda) while the leaves are still moist.
After the desired period of time, the kill in % is determined. 100%, means that all caterpillars have been killed; 0% means that none of the caterpillars have been killed.

[4] = test system: peach affids (Myzus persicae); test: Myzus-Test (cabbage leaves dipped); assay type: in vivo; settings: active compound concentration of 0.1%, after 6 days
Experimental: as §4, §2, §3
Cabbage leaves (Brassica oleracea), which are heavily infested by peach affids (Myzus persicae) are treated by being dipped into the preparation of active compound of the desired concentration.
After the desired period of time, the kill in per cent is determined. 100% means that all affids have been killed; 0% means that none of the affids have been killed.

[5] = test system: Lucilia cuprina-Larvae; test: Blowfly-Larvae-Test/Development-inhibitory Action; assay type: in vivo; settings: active compound concentration of 1000 ppm, read-out: activity (inhibition of fly emergence)
Experimental: Blowfly-Larvae-Test/Development-inhibitory Action
Test animals: Lucilia cuprina-Larvae
Solvent: dimethyl sulphoxide
20 mg of active compound are dissolved in 1 ml of dimethyl sulphoxide, more dilute concentrations are prepared by dilution with distilled H2O.
Approximately 20 Lucilia cuprina larvae are introduced into a test tube which contains approximately 1 cm^3 of horse meat and 0.5 ml of the preparation of active compound to be tested. After 24 and 48 hours, the efficacy of the preparation of active compound is determined. The test tubes are transferred into beakers whose bottom is covered with sand. After a further 2 days, the test tubes are removed, and the pupae are counted.
The activity of the preparation of active compound is assessed by the number of flies which have emerged after 1.5 times the development time of an untreated control. 100% means that no flies have emerged; 0% means that all the flies have emerged normally.

[6] = test system: fruit tree red spider mite (Panonychus ulmi); test: Panonychus-Test (plum trees sprayed); assay type: in vivo; settings: active compound concentration of 0.02%, after 7 days
Experimental: as §1, §2
To produce a suitable preparation of active compound, 1 part by weight of active compound is mixed with the stated amount of solvent and the stated amount of emulsifier, and the concentrate is diluted with emulsifier-containing water to the desired concentration.
Plum trees (Prunus domestica), of a height of approximately 30 cm which are heavily infested by all development stages of the fruit tree red spider mite (Panonychus ulmi) are sprayed with a preparation of active compound of the desired concentration.
After the desired period of time, the effect in % is determined. 100% means that all spider mites have been killed, 0% means that none of the spider mites have been killed.

[7] = test system: larvae of the mustard beetle (Phaedon cochleariae); test: Phaedon-Larvae-Test (cabbage leaves dipped); assay type: in vivo; settings: active compound concentration of 0.1%, after 7 days
Experimental: as §4, §2, §3
After the desired period of time, the kill in % was determined. 100% means that all beetle larvae have been killed, 0% means that none of the beetle larvae have been killed.

CON=C1CCC2(CC1)OC(=O)C(c1c(C)cc(C)cc1C)=C2O (centres unmarked) [Example I-2-a-2]
100%: kill [1] | kill [2]

CON=C1CCC2(CC1)OC(=O)C(c1c(C)cc(C)cc1C)=C2OC(=O)C(C)(C)C (centres unmarked) [Example I-2-b-2]
100%: kill [3] | kill [1] | kill [4] | inhibition at 1000 ppm [5] | effect (spider mites killed) [6] | kill [7]
